Structures can show the parent of a compound that is named as a salt.
Experiments:
asthmatics = settings: cited from earlier work
[1] = test system: patients with stable COPD; experiment: Serial and pre-dose FEV1 (spirometry) in Viozan phase III clinical trials, stratified by ADRB2 haplotype; type: in vivo, human
Excerpt: (§1) Samples for genotyping were taken from 2450 patients recruited in four Viozan™ phase III clinical trials, namely SC-397-5097, SC-397-5098, SC-397-5099 and SC-397-5163. The patient population included male and female patients, aged 40 to 80 years, with stable COPD, symptoms for ≧2 years, and a smoking history of at least 15 pack years. […] Further details about the patient population, and the study designs, are described in Laursen et al. Respiratory Medicine (2003), Vol 97, Suppl A, S23-S33. Participation in the genetics sub-study was voluntary. Patients gave separate written informed consent for the genetic analysis. Patients all consented to provide DNA for use in studying the response to Viozan™. Viozan™ is a dual agonist, targeting the β2-adrenergic receptor and the […] genes, developed for the treatment of COPD (Rennard, 2003, Respiratory Medicine, Vol 97, Suppl A, S1-S2).
Pre- and post-dose FEV1 (forced expiratory volume in 1 second), the volume of air exhaled in the first second of the FVC manoeuvre (expressed in litres), measurements were taken at each study visit for all patients, as described in the clinical study protocols. Spirometry measurements were performed using a standard technique at each centre. Details about the spirometer used and the calibration records were provided by each centre. After resting for 15 minutes, slow vital capacity (SVC), forced vital capacity (FVC) and FEV1 were measured for at least three separate manoeuvres. The greatest values for each parameter were recorded.
Serial measurements were taken on day 1 (studies SC-397-5097 and SC-397-5098), weeks 8 and 12 (SC-397-5098) and weeks 14 and 26 (SC-397-5097). The AUC0-8, mean FEV1 at 8 hrs and mean maximum change from pre-dose (FEV1 max) were calculated. These measurements were used to investigate the bronchodilator properties of Viozan™, a long-acting β2-agonist.
Because serial FEV1 measurements were available for only a small number of subjects, and to increase the power of the analyses, the data was subsequently analysed in two subgroups (‘binning’) based on the haplotype pair of each patient; “C” haplotypes (i.e. patients having at least one copy of the ‘C’ haplotype) and “non-C” haplotype (i.e. patients having no ‘C’ haplotype). ‘C’ haplotype group included patients with haplotypes AC, BC and CC, whilst the non-C haplotype group included subjects with haplotypes AA, BB and AB. For the ‘binned’ haplotype analyses, subjects with one or more copies of haplotype D and E were not included, as there were few subjects with these haplotype pairs.
Assessment of the relationship between ADRB2 haplotype and the long-term FEV1 response, was achieved by comparing the pre-treatment and pre-dose baselines. The “pre-treatment” FEV1 baseline is for no prior exposure to the study drug, and was measured at day 1 (visit 2), immediately prior to treatment with Viozan™. The “pre-dose” FEV1 baseline is that measured prior to administration of drug on that day at subsequent visits, during the course of the trials, i.e. at weeks 8 and 12 (SC-397-5098) and weeks 14 and 26 (SC-397-5097). […] Observations are consistent with a trend for prolonged bronchodilation in the C haplotype subgroup and better overall long-term lung function in response to regular treatment with Viozan™ and long acting β2-agonists.
Analysis of the serial FEV1 response between first treatment and following 3 months of Viozan™ treatment was determined by subtracting the pre-treatment baseline (visit 2) from the absolute FEV1 measurements collected at visit 2 (day 1) and the combined data for week 12 (SC-397-5098) and week 14 (SC-397-5097). […] Serial FEV1 response at day 1 (visit 2) overlaps with that at 3 months post treatment, for patients in the ‘C’ haplotype subgroup. A similar response is observed for the non-C haplotype group at day 1 (visit 2). However, the serial FEV1 response, in the non-C haplotype group, appears to be reduced after 3 months of treatment. […]

[2] = test system: patients with stable COPD; experiment: BCSS (breathlessness, cough and sputum score) change from baseline in Viozan clinical trials, stratified by ADRB2 haplotype; type: in vivo, human
Excerpt: as §1
Changes in COPD symptoms were assessed using the BCSS (breathlessness, cough and sputum score), also referred to as the TSS (total symptom score). Each symptom, that is breathlessness, cough and sputum, was evaluated daily by the patient and recorded in a diary using a 5-point Likert scale (ranging from 0 to 4, with the higher values indicating more sever symptoms). The three item scores were summed to calculate the BCSS total score, resulting in a value between 0 and 12. The reliability and validity of the BCSS for evaluating symptoms in COPD is discussed in Leidy et al, 2003, Respiratory Medicine, Vol 97, SupplA, S59-S70. A mean change of ±1 point on the BCSS total score represents a substantial improvement in symptom severity for patients with moderate to severe COPD (Celli et al. Respiratory Medicine, (2003) Vol 97, SupplA, S35-43).

[3] = 3 mth (SC-397-5098) and 6 mth (SC-397-5097) treatment, trend
[4] = first exposure, trials SC-397-5097 and SC-397-5098

| SMILES | lung function response, 2/2 haplotype (asthmatics; 2/2 corresponds to AA) | lung function response, 4/4 haplotype (asthmatics; 4/4 corresponds to BB) | lung function response, 4/6 haplotype (asthmatics; 4/6 corresponds to BC) | change in baseline (trough) FEV1 over the course of the trials, C-haplotype sub-group [1, 3] | change in baseline (trough) FEV1 over the course of the trials, subjects lacking C-haplotype [1, 3] | serial FEV1 response after 3 months of treatment, non-C haplotype group ([1]; change from pre-treatment baseline, combined week 12 and week 14 data, versus day 1) | time after treatment at which FEV1 response was observed [1, 4] | time for which FEV1 continued to increase post treatment [1, 4] | time of maximum FEV1 increase post study drug [1, 4] | serial FEV1 response, patients with BB haplotype pair ([1]; first exposure, BB (N=13), compared with other haplotype pairs) | serial FEV1 response, patients with BC haplotype ([1]; first exposure, BC (N=21)) | difference in FEV1 between subgroups stratified by ADRB2 haplotype pair ([1]; serial FEV1 at first exposure, haplotype pairs AA, AC, BA, BB, BC) | patients with a clinically significant BCSS response compared to mean placebo response ([2]; C-haplotype group share of the clinical trial population) | BCSS response in C haplotype sub-group versus non-C haplotype group and versus placebo ([2]; change from baseline to final 4 weeks, combined SC-397-5163 and SC-397-5098) | reduction in mean BCSS, 'C' Haps (AC, BC, CC) compared to 'Non-C' Haps (AA, BB, BA) ([2]; combined studies SC-397-5163 and SC-397-5098) | BCSS response in C haplotype sub-group versus non-C haplotype subgroup ([2]; study SC-397-5163, 3 month, C Haps N=84, non-C Haps N=201) | difference in mean BCSS change from baseline to final 4 weeks of treatment, Viozan versus placebo ([2]; unstratified patient population) |
| --- | --- | --- | --- | --- | --- | --- | --- | --- | --- | --- | --- | --- | --- | --- | --- | --- | --- |
| CC(C)(C)NCC(O)c1ccc(O)c(CO)c1 (centres unmarked) [albuterol, albuterol sulphate] | intermediate response | lowest response | best response | – | – | – | – | – | – | – | – | – | – | – | – | – | – |
| O=c1[nH]c2c(O)ccc(CCNCCS(=O)(=O)CCCOCCc3ccccc3)c2s1 [Viozan, Sibenadet HCl] | – | – | – | increase | decrease slightly | reduced | 5 min | up to 2 hours | one to two | smaller | greatest response | approximately 100 cc | approximately 30% | significantly better | up to 0.6 | significantly better | neither statistically significant, nor considered to be of clinical importance |
